These results are taken from patent US8017612B2, “Piperazine compound and use thereof as a HCV polymerase inhibitor” (priority 2006, dated 2011).

SMILES strings stand for the structures. Structures can show the parent of a compound that is named as a salt. Where only a bound is given, the exact number is not on record here.

Assay [1] has as its target T1, HCV polymerase (NS5B) type 1b (Hepatitis C virus genotype 1b, UniProt P26663).
T1 construct: a region encoding NS5B (J Virol 1991 March, 65(3), 1105-13, 544 amino acids after deletion of 47 amino acids on the C-terminal); 6xHis (C); made in house; host or cells: Escherichia coli
Nature of the assay: Assay of enzyme (HCV polymerase) inhibitory activity, type 1b enzyme. The class given is biochemical, HCV BK strain (type 1b). In outline: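 Polymerase activity was followed as radiolabelled UTP incorporation by E. coli-expressed, His-tagged NS5B of HCV type 1b lacking its last 47 residues. Conditions: 2 μM UTP, 50 μM other NTPs, Mg2+ buffer at pH 7.5, 25 °C for 60 min. Inhibition relative to compound-free reactions gave IC50.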

Assay [2] concerns the target T2, HCV polymerase (NS5B) type 1a (Hepatitis C virus genotype 1a, UniProt P26664).
T2 construct: made in house; host or cells: Escherichia coli (by the 'similar method' of the 1b enzyme)
Nature of the assay: Assay of enzyme (HCV polymerase) inhibitory activity, type 1a enzyme. Type of assay: biochemical, HCV type 1a (cloned from the blood of patients). In outline:
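IC50 values derive from radioactivity of newly synthesized RNA with versus without test compound. The enzyme was C-terminally truncated type 1a NS5B, 1.5 μg/ml, run 60 min at 25° C with 3H-UTP-labelled nucleotides.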

Setting [3] is: HCV polymerase inhibitory activity (IC50), 1b, type 1b enzyme 0.5 μg/ml, 25° C., 60 min.
[4] abbreviates: HCV polymerase inhibitory activity (IC50), 1a, type 1a enzyme 1.5 μg/ml, 25° C., 60 min.
The mark [5] stands for this setting: HCV polymerase inhibitory activity IC50, 1b, type 1b enzyme.
[6] abbreviates: HCV polymerase inhibitory activity IC50, 1a, type 1a enzyme.

On to `CCCc1ccc(CNC(=O)[C@H]2CN(c3nc(C)c(C(=O)NS(C)(=O)=O)s3)CCN2S(=O)(=O)c2ccc(OC(F)(F)F)cc2)cc1` [Example 447, (R)-4-(5-methanesulfonylaminocarbonyl-4-methyl-thiazol-2-yl)-1-(4-trifluoromethoxy-benzenesulfonyl)-piperazine-2-carboxylic acid 4-propyl-benzylamide], for which the concentration for half-maximal inhibition (IC50) in assay [1] (setting [3]) was less than 100 nM; in assay [2] (setting [4]), 100 to 1000 nM.
For `CC(C)c1ccc(CNC(=O)[C@H]2CN(c3cc(C(=O)O)n(C)n3)CCN2S(=O)(=O)c2ccc(C(F)(F)F)cc2)cc1` [Example 445, 5-[(R)-3-(4-isopropyl-benzylcarbamoyl)-4-(4-trifluoromethyl-benzenesulfonyl)-piperazin-1-yl]-2-methyl-2H-pyrazole-3-carboxylic acid], in that order: less than 100 nM and 100 to 1000 nM.
On the same counts, the results for `CC(C)c1ccc(CNC(=O)[C@H]2CNCCN2S(=O)(=O)c2ccc(C(F)(F)F)cc2)cc1` [Example 1, (R)-1-(4-trifluoromethyl-benzenesulfonyl)-piperazine-2-carboxylic acid 4-isopropyl-benzylamide hydrochloride] are more than 1000 nM and more than 1000 nM.
In the case of `O=C(NCc1ccc(OC(F)(F)F)cc1)[C@H]1CN(c2nc3nc(CN4CCCC4)ncc3s2)CCN1S(=O)(=O)c1ccc(OC(F)(F)F)cc1` [Example 1056, (R)-4-(5-pyrrolidin-1-ylmethyl-thiazolo[4,5-d]pyrimidin-2-yl)-1-(4-trifluoromethoxy-benzenesulfonyl)-piperazine-2-carboxylic acid 4-trifluoromethoxy-benzylamide], the half-maximal inhibitory concentration (IC50) in assay [1] (setting [5]) and in assay [2] (setting [6]) was less than 100 nM each time.
For `CC(C)c1ccc(CNC(=O)[C@H]2CN(c3cnc(C(=O)O)c(N)n3)CCN2S(=O)(=O)c2ccc(C(F)(F)F)cc2)cc1` [Example 443, (R)-6′-amino-3-(4-isopropyl-benzylcarbamoyl)-4-(4-trifluoromethyl-benzenesulfonyl)-3,4,5,6-tetrahydro-2H-[1,2′]bipyrazinyl-5′-carboxylic acid], the IC50 in assay [1] (setting [3]) was less than 100 nM; in assay [2] (setting [4]) it was 100 to 1000 nM.
As to `CC[N+](CC)(CC)Cc1cnc(N2CCN(S(=O)(=O)c3ccc(OC(F)(F)F)cc3)[C@@H](C(=O)NCc3ccc(C(C)(C)C)cc3)C2)cn1` [Example 1095, [(R)-3-(4-tert-butyl-benzylcarbamoyl)-4-(4-trifluoromethoxy-benzenesulfonyl)-3,4,5,6-tetrahydro-2H-[1,2′]bipyrazinyl-5′-ylmethyl]-triethyl-ammonium trifluoro-methanesulfonate], the IC50 in assay [1] (setting [5]) and in assay [2] (setting [6]) was 100 to 1000 nM in each case.
Turning to `CCCc1ccc(CNC(=O)[C@H]2CN(c3nc(C)c(CN(C)C)s3)CCN2S(=O)(=O)c2ccc(OC(F)(F)F)cc2)cc1` [Example 505, (R)-4-(5-dimethylaminomethyl-4-methyl-thiazol-2-yl)-1-(4-trifluoromethoxy-benzenesulfonyl)-piperazine-2-carboxylic acid 4-propyl-benzylamide], the IC50 in assay [1] (setting [3]) and in assay [2] (setting [4]) was less than 100 nM in each case.
As to `CCC(F)(F)c1ccc(CNC(=O)[C@H]2CN(c3cnc4cncnc4n3)CCN2S(=O)(=O)c2ccc([N+](=O)[O-])cc2)cc1` [Example 698, (R)-1-(4-nitro-benzenesulfonyl)-4-pteridin-7-yl-piperazine-2-carboxylic acid 4-(1,1-difluoro-propyl)-benzylamide], the IC50 in assay [1] (setting [5]) and in assay [2] (setting [6]) was less than 100 nM throughout.
Regarding `CC(=O)N1CCN(S(=O)(=O)C2CCCCC2)C(C(=O)NCc2ccc(C(F)(F)F)cc2)C1` (stereo not drawn) [Example 196, 4-acetyl-1-cyclohexanesulfonyl-piperazine-2-carboxylic acid 4-trifluoromethyl-benzylamide], the concentration for half-maximal inhibition (IC50) in assay [1] (setting [3]) and in assay [2] (setting [4]) was more than 1000 nM in each case.
As for `COC(=O)CCC(=O)NCC(=O)N1CCN(S(=O)(=O)c2ccc(C(F)(F)F)cc2)[C@@H](C(=O)NCc2ccc(C(C)C)cc2)C1` [Example 252, N-{2-[(R)-3-(4-isopropyl-benzylcarbamoyl)-4-(4-trifluoromethyl-benzenesulfonyl)-piperazin-1-yl]-2-oxo-ethyl}-succinamic acid methyl ester], the concentration for half-maximal inhibition (IC50) in assay [1] (setting [3]) and in assay [2] (setting [4]) was 100 to 1000 nM in each case.
For `CCCc1ccc(S(=O)(=O)N2CCN(C(C)=O)C[C@@H]2C(=O)NCc2ccc(CC)cc2)cc1` [Example 247, (R)-4-acetyl-1-(4-propyl-benzenesulfonyl)-piperazine-2-carboxylic acid 4-ethyl-benzylamide], the values for the half-maximal inhibitory concentration (IC50) in assay [1] (setting [3]) and in assay [2] (setting [4]) were less than 100 nM and 100 to 1000 nM, respectively.
With `COc1ccc(S(=O)(=O)N2CCN(c3nc4cn[nH]c(=O)c4s3)C[C@@H]2C(=O)NCc2ccc(OC(F)(F)F)cc2)cc1` [Example 884, (R)-1-(4-methoxy-benzenesulfonyl)-4-(7-oxo-6,7-dihydro-thiazolo[4,5-d]pyridazin-2-yl)-piperazine-2-carboxylic acid 4-trifluoromethoxy-benzylamide], the IC50 in assay [1] (setting [5]) and in assay [2] (setting [6]) was less than 100 nM throughout.
With `CCc1ncc2sc(N3CCN(S(=O)(=O)c4ccc(OC(F)(F)F)cc4)[C@@H](C(=O)NCc4ccc(OC(F)(F)F)cc4)C3)nc2n1` [Example 949, (R)-4-(5-ethyl-thiazolo[4,5-d]pyrimidin-2-yl)-1-(4-trifluoromethoxy-benzenesulfonyl)-piperazine-2-carboxylic acid 4-trifluoromethoxy-benzylamide], the half-maximal inhibitory concentration (IC50) in assay [1] (setting [5]) and in assay [2] (setting [6]) was less than 100 nM throughout.
On to `CC(C)c1ccc(CNC(=O)[C@H]2CN(C(=O)CN3CCOCC3)CCN2S(=O)(=O)c2ccc(C(F)(F)F)cc2)cc1` [Example 180, (R)-4-(2-morpholin-4-yl-acetyl)-1-(4-trifluoromethyl-benzenesulfonyl)-piperazine-2-carboxylic acid 4-isopropyl-benzylamide], for which the IC50 in assay [1] (setting [3]) is 100 to 1000 nM; in assay [2] (setting [4]), more than 1000 nM.
Regarding `O=C(NCc1ccc(OC(F)(F)F)cc1)[C@H]1CN(c2cnc3cnccc3n2)CCN1S(=O)(=O)c1ccc(Br)s1` [Example 775, (R)-1-(5-bromo-thiophene-2-sulfonyl)-4-pyrido[3,4-b]pyrazin-2-yl-piperazine-2-carboxylic acid 4-trifluoromethoxy-benzylamide], the IC50 in assay [1] (setting [5]) and in assay [2] (setting [6]) was less than 100 nM each time.
As for `CCCc1ccc(CNC(=O)[C@H]2CN(C(=O)Nc3ccccc3C(=O)OCc3ccccc3)CCN2S(=O)(=O)c2ccc(OC(F)(F)F)cc2)cc1` [Example 837, 2-{[(R)-3-(4-propyl-benzylcarbamoyl)-4-(4-trifluoromethoxy-benzenesulfonyl)-piperazine-1-carbonyl]-amino}-benzoic acid benzyl ester], the IC50 in assay [1] (setting [5]) and in assay [2] (setting [6]) was more than 1000 nM throughout.
As to `O=C(NCc1ccc(OC(F)(F)F)cc1)[C@H]1CN(c2nc3nc(C4CC4)ncc3s2)CCN1S(=O)(=O)c1ccc(OC(F)F)cc1` [Example 1016, (R)-4-(5-cyclopropyl-thiazolo[4,5-d]pyrimidin-2-yl)-1-(4-difluoromethoxy-benzenesulfonyl)-piperazine-2-carboxylic acid 4-trifluoromethoxy-benzylamide], the IC50 in assay [1] (setting [5]) and in assay [2] (setting [6]) was less than 100 nM in each case.
Turning to `CCC(F)(F)c1ccc(CNC(=O)[C@H]2CN(C(=O)Nc3ccnc(CO)c3)CCN2S(=O)(=O)c2ccc(OC(F)(F)F)cc2)cc1` [Example 511, (R)-4-(4-trifluoromethoxy-benzenesulfonyl)-piperazine-1,3-dicarboxylic acid 3-[4-(1,1-difluoro-propyl)-benzylamide] 1-[(2-hydroxymethyl-pyridin-4-yl)-amide]], the IC50 in assay [1] (setting [3]) and in assay [2] (setting [4]) was less than 100 nM in each case.
On to `CN(C)c1ccc(CNC(=O)[C@H]2CN(C(=O)Cc3ccncc3)CCN2S(=O)(=O)c2ccc(OC(F)(F)F)cc2)cc1` [Example 410, (R)-4-(2-pyridin-4-yl-acetyl)-1-(4-trifluoromethoxy-benzenesulfonyl)-piperazine-2-carboxylic acid 4-dimethylamino-benzylamide], for which the concentration for half-maximal inhibition (IC50) in assay [1] (setting [3]) is 100 to 1000 nM; in assay [2] (setting [4]), less than 100 nM.
On the same counts, the results for `CCCc1ccc(CNC(=O)[C@H]2CN(c3cnc(C(=O)O)cn3)CCN2S(=O)(=O)c2ccc(CC)cc2)c(Cl)c1` [Example 485, (R)-3-(2-chloro-4-propyl-benzylcarbamoyl)-4-(4-ethyl-benzenesulfonyl)-3,4,5,6-tetrahydro-2H-[1,2′]bipyrazinyl-5′-carboxylic acid] are less than 100 nM and less than 100 nM.
For `O=C(O)c1cncc2ncc(N3CCN(S(=O)(=O)c4ccc(Cl)s4)[C@@H](C(=O)NCc4ccc(OC(F)(F)F)cc4)C3)nc12` [Example 861, 2-[(R)-4-(5-chloro-thiophene-2-sulfonyl)-3-(4-trifluoromethoxy-benzylcarbamoyl)-piperazin-1-yl]-pyrido[3,4-b]pyrazine-8-carboxylic acid], the IC50 in assay [1] (setting [5]) and in assay [2] (setting [6]) was less than 100 nM in each case.
